Reference: article PMC4028821 (Chemical communications (Cambridge, England), 2014)

Target: PARP1 (Homo sapiens, UniProt P09874)
Assay: enzyme inhibition assay with recombinant human PARP1
Type: biochemical

Chain of PARP1 (P09874 2-1014): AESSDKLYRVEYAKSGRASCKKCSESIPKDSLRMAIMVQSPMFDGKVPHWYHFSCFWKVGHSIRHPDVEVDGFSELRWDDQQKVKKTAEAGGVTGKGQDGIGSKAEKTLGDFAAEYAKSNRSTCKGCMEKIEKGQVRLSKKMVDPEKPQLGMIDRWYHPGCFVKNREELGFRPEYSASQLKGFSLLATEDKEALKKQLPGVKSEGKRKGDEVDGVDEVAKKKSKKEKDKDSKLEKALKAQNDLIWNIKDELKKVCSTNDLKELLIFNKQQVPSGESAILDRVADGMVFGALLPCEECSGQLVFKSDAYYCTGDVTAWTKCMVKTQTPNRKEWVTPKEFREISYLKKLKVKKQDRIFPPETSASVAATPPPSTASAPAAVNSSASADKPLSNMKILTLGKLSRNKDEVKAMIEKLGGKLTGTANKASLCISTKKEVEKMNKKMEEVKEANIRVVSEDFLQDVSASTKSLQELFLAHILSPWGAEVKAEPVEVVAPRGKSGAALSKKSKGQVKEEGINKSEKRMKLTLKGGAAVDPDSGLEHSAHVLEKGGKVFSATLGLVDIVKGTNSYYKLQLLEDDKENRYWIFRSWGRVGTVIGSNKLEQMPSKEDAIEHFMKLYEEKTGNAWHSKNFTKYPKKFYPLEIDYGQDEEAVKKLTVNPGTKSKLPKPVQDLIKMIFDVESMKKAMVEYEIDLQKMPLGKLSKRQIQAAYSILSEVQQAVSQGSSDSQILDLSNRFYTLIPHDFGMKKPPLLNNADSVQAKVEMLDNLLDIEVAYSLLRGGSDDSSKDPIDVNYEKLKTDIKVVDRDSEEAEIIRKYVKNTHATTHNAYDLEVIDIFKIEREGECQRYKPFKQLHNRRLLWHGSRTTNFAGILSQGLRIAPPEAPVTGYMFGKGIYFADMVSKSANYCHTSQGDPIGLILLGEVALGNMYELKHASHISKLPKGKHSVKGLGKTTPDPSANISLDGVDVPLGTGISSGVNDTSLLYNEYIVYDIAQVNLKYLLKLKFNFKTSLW

Substance	IC50 [nM]
Olaparib-SiR-COOH [compound 10]	100
Olaparib-SiR-Me [compound 6]	99.2
